# Measurements published in patent US20240207300A1, “COMBINATION THERAPIES INCLUDING MYT1 INHIBITORS” (Repare Therapeutics Inc., priority 2021, published 2024).
# pIC50: −log10 of the molar value.
# Target: recombinant human Myt1 (Homo sapiens (Human), UniProt Q99640)
# Assay: Recombinant human Myt1 kinase ADP-Glo enzymatic assay
# Format: biochemical
# Conditions: recombinant human Myt1 18 nM, ATP 10 μM
# Protocol: Detection of Myt1 kinase activity utilized a recombinant human Myt1 kinase assay measuring the hydrolysis of ATP using a commercially available ADP-Glo Assay (ADP-Glo™ Kinase Assay from Promega, 10 000 assays, #V9102). […] After this, 5 μL of compounds (diluted in reaction buffer to 0.5% DMSO) was added to the microplate and the plate was spun briefly and incubated at 22° C. for 15 minutes. Ultra-Pure Adenosine Triphosphate (ATP) solution (ADP-Glo kit from Promega) was diluted in reaction buffer and 5 μL was added to the microplate, spun down briefly and incubated for 60 minutes at 30° C. […] After the 60-minute incubation, 15 μL of ADP-Glo reagent was added and the plate was spun briefly and sealed and incubated in the dark for 40 minutes at 22° C. […] Luminescence was read using the Envision (250 ms integration). The IC50 and the % max inhibition were calculated for each inhibitor compound tested.
# Sequence of recombinant human Myt1 (Q99640 whole entry): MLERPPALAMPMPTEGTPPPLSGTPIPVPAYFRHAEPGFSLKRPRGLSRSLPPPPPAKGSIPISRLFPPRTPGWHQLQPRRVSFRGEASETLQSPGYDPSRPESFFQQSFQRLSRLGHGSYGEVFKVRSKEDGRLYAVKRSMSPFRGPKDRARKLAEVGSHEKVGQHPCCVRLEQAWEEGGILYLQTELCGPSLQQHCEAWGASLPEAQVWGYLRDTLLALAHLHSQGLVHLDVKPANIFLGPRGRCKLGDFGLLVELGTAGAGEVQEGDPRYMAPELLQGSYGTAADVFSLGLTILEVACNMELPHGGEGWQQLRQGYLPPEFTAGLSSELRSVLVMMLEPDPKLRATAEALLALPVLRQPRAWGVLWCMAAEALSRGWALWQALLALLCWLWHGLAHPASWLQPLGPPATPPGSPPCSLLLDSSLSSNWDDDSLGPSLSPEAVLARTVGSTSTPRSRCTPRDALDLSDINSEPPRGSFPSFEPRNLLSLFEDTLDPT
row,SMILES,pIC50
1,"Cc1ccc(O)c(C)c1-n1c(N)c(C(N)=O)c2cc(Br)c(C)nc21 (single isomer, unassigned) [Compound 188]",> 8.00
2,"Cc1ccc(O)c(C)c1-n1c(N)c(C(N)=O)c2cc(Br)c(C)nc21 (single isomer, unassigned) [Compound 189]",6.00
3,Cc1ccc(O)cc1-n1c(N)c(C(N)=O)c2nc(C3=CCCN(C(=O)OC(C)(C)C)C3)ccc21 [Compound 26],5.70
4,"Cc1ccc(O)c(C)c1-n1c(N)c(C(N)=O)c2nc(-c3nccs3)c(C)nc21 [Compound 31, 6-amino-5-(3-hydroxy-2,6-dimethyl-phenyl)-3-methyl-2-thiazol-2-yl-pyrrolo[2,3-b]pyrazine-7-carboxamide]",> 8.00
5,Cc1ccc(O)c(C)c1-n1c(N)c(C(N)=O)c2nc(-c3nc(C)c(C)s3)cnc21 [Compound 32],> 8.00
6,Cc1ccc(O)c(C)c1-n1c(N)c(C(N)=O)c2nc(-c3ccccn3)cnc21 [Compound 34],> 8.00
7,"Cc1ccc(O)c(C)c1-n1c(N)c(C(N)=O)c2nc(-c3ccnc(C(F)(F)F)c3)cnc21 [Compound 35, 6-amino-5-(3-hydroxy-2,6-dimethyl-phenyl)-2-[2-(trifluoromethyl)-4-pyridyl]pyrrolo[2,3-b]pyrazine-7-carboxamide]",> 8.00
8,Cc1ccc(O)c(C)c1-n1c(N)c(C(N)=O)c2nc(-c3cncs3)cnc21 [Compound 37],> 8.00
9,Cc1ccc(O)c(C)c1-n1c(N)c(C(N)=O)c2nc(-c3cnccn3)cnc21 [Compound 38],> 8.00
10,Cc1ccc(O)c(C)c1-n1c(N)c(C(N)=O)c2nc(-c3ccns3)cnc21 [Compound 41],> 8.00
11,Cc1c(O)ccc(Cl)c1-n1c(N)c(C(N)=O)c2nc(-c3nccs3)cnc21 [Compound 42],> 8.00
12,"CNC(=O)C1CCN(c2cnc3c(n2)c(C(N)=O)c(N)n3-c2c(C)ccc(O)c2C)CC1 [Compound 46, 6-amino-5-(3-hydroxy-2,6-dimethyl-phenyl)-2-[4-(methylcarbamoyl)-1-piperidyl]pyrrolo[2,3-b]pyrazine-7-carboxamide]",> 8.00
13,Cc1ccc(O)c(C)c1-n1c(N)c(C(N)=O)c2nc(-c3ccncn3)cnc21 [Compound 57],> 8.00
14,Cc1ccc(O)c(C)c1-n1c(N)c(C(N)=O)c2nc(C3=CCC(C(=O)N(C)C)CC3)cnc21 (centres unmarked) [Compound 58],> 8.00
15,Cc1ccc(-c2cnc3c(n2)c(C(N)=O)c(N)n3-c2c(C)ccc(O)c2C)nc1 [Compound 61],> 8.00
16,Cc1ccc(O)c(C)c1-n1c(N)c(C(N)=O)c2nc(-c3ccc(F)cn3)cnc21 [Compound 64],> 8.00
17,Cc1ccc(O)c(C)c1-n1c(N)c(C(N)=O)c2nc(-c3c[nH]cn3)cnc21 [Compound 65],> 8.00
18,Cc1ccc(O)c(C)c1-n1c(N)c(C(N)=O)c2nc(-c3cn(C)cn3)cnc21 [Compound 76],> 8.00
19,Cc1ccc(O)c(C)c1-n1c(N)c(C(N)=O)c2nc(N3CCC(C(=O)N(C)C)CC3)cnc21 [Compound 80],> 8.00

row,SMILES,pIC50
1,Cc1ccc(O)c(C)c1-n1c(N)c(C(N)=O)c2nc(N3CCCCC3)cnc21 [Compound 81],> 8.00
2,Cc1ccc(O)c(C)c1-n1c(N)c(C(N)=O)c2nc(C3CCCCC3)cnc21 [Compound 83],> 8.00
3,CCN(CC)c1cnc2c(n1)c(C(N)=O)c(N)n2-c1c(C)ccc(O)c1C [Compound 88],> 8.00
4,Cc1ccc(O)c(C)c1-n1c(N)c(C(N)=O)c2nc(C3CC3)c(C)nc21 [Compound 100],> 8.00
5,Cc1ccc(O)c(Cl)c1-n1c(N)c(C(N)=O)c2nc(C3CC3)cnc21 [Compound 104],> 8.00
6,Cc1ccc(O)c(C)c1-n1c(N)c(C(N)=O)c2cc(C(C)C)cnc21 [Compound 138],> 8.00
7,Cc1ccc(O)c(C)c1-n1c(N)c(C(N)=O)c2cc(Br)cnc21 [Compound 141],> 8.00
8,Cc1ccc(O)c(C)c1-n1cc(C(N)=O)c2cc(C3CC3)cnc21 [Compound 143],> 8.00
9,"Cc1ccc(O)c(C)c1-n1c(N)c(C(N)=O)c2nc(C3CCC3)cnc21 [Compound 173, 6-amino-2-cyclobutyl-5-(3-hydroxy-2,6-dimethyl-phenyl)pyrrolo[2,3-b]pyrazine-7-carboxamide]",> 8.00
10,"Cc1ccc(O)c(C)c1-n1c(N)c(C(N)=O)c2nc(C(C)(C)F)cnc21 [Compound 178, 6-amino-2-(1-fluoro-1-methyl-ethyl)-5-(3-hydroxy-2,6-dimethyl-phenyl)pyrrolo[2,3-b]pyrazine-7-carboxamide]",> 8.00
11,Cc1ccc(O)c(C)c1-n1c(N)c(C(N)=O)c2cc(Br)c(C)nc21 [Compound 187],> 8.00
12,Cc1ccc2c(C(N)=O)c(N)n(-c3c(C)ccc(O)c3C)c2n1 [Compound 193],> 8.00
13,"Cc1ccc(O)c(C)c1-n1c(N)c(C(N)=O)c2nc(C3(C(F)(F)F)CC3)cnc21 [Compound 198, 6-amino-5-(3-hydroxy-2,6-dimethyl-phenyl)-2-[1-(trifluoromethyl)cyclopropyl]pyrrolo[2,3-b]pyrazine-7-carboxamide]",> 8.00
14,Cc1ccc(O)c(C)c1-n1c(N)c(C(N)=O)c2ncc(C#CC3OCCC3Cl)nc21 (centres unmarked) [Compound 233],8.00
15,Cc1ccc(O)c(Br)c1-n1c(N)c(C(N)=O)c2cc(Cl)cnc21 [Compound 289],> 8.00
16,Cc1ccc(O)c(C)c1-n1c(N)c(C(N)=O)c2c(C)c(Cl)cnc21 [Compound 313],> 8.00
17,Cc1ccc(O)c(C)c1-n1c(N)c(C(N)=O)c2c(Cl)c(Cl)cnc21 [Compound 316],> 8.00
18,Cc1ccc(O)c(C)c1-n1c(N)c(C(N)=O)c2cc(I)cnc21 [Compound 319],> 8.00

# Further lines, results first:
row,pIC50,SMILES
1,> 8.00,Cc1ccc(O)c(C)c1-n1c(N)c(C(N)=O)c2nc(N3CCCC3)cnc21 [Compound 85]
2,> 8.00,Cc1ccc(O)c(C)c1-n1c(N)c(C(N)=O)c2nc(C3=CCCCC3)cnc21 [Compound 86]
3,> 8.00,CC(=O)N1CCN(c2cnc3c(n2)c(C(N)=O)c(N)n3-c2c(C)ccc(O)c2C)CC1 [Compound 87]
4,> 8.00,Cc1ccc(O)c(C)c1-n1c(N)c(C(N)=O)c2nc(N3CC4CCC(C3)O4)cnc21 [Compound 92]
5,> 8.00,Cc1ccc(O)c(C)c1-n1c(N)c(C(N)=O)c2cc(C(C)(C)O)cnc21 [Compound 131]
6,> 8.00,Cc1nc2c(C(N)=O)c(N)n(-c3c(Cl)ccc(O)c3C)c2nc1C [Compound 168]
7,> 8.00,C=C(C)c1cnc2c(n1)c(C(N)=O)c(N)n2-c1c(C)ccc(O)c1C [Compound 202]
8,> 8.00,"Cc1ccc(O)c(C)c1-n1c(N)c(C(N)=O)c2nc(C(N)=O)cnc21 [Compound 220, 6-amino-5-(3-hydroxy-2,6-dimethyl-phenyl)pyrrolo[2,3-b]pyrazine-2,7-dicarboxamide]"
9,> 8.00,Cc1ccc(O)c(C)c1-n1c(N)c(C(N)=O)c2ncc(C#CCC3CCOCC3)nc21 [Compound 222]
10,7.28,Cc1ccc(O)c(C)c1-n1c(N)c(C(N)=O)c2ncc(C#CC(C)O)nc21 (centres unmarked) [Compound 229]
11,> 8.00,Cc1ccc(O)c(C)c1-n1c(N)c(C(N)=O)c2ncc(C#CC3(O)CCOCC3)nc21 [Compound 231]
12,7.85,Cc1ccc(O)c(C)c1-n1c(N)c(C(N)=O)c2ncc(C#CC3OCCC3O)nc21 (centres unmarked) [Compound 234]
13,6.72,COCCOCC#Cc1cnc2c(n1)c(-c1c(C)ccc(O)c1C)c(N)n2C(N)=O [Compound 240]
14,7.62,Cc1ccc(O)c(C)c1-n1c(N)c(C(N)=O)c2ncc(C#CC(C)O)nc21 (centres unmarked) [Compound 241]
15,> 8.00,"Cc1ccc(O)c(C)c1-n1c(N)c(C(N)=O)c2ncc(C#CC3(O)CCC(F)(F)CC3)nc21 [Compound 242, 6-amino-3-[2-(4,4-difluoro-1-hydroxy-cyclohexyl)ethynyl]-5-(3-hydroxy-2,6-dimethyl-phenyl)pyrrolo[2,3-b]pyrazine-7-carboxamide]"
16,> 8.00,Cc1ccc(O)c(C)c1-n1c(N)c(C(N)=O)c2nc(-c3nc4ccccc4s3)cnc21 [Compound 248]
17,> 8.00,Cc1ccc(O)c(C)c1-n1c(N)c(C(N)=O)c2nc(-c3ccnnc3)cnc21 [Compound 250]
18,> 8.00,C=Cc1cnc2c(n1)c(C(N)=O)c(N)n2-c1c(C)ccc(O)c1C [Compound 259]
19,> 8.00,Cc1ccc(O)c(C)c1-n1c(N)c(C(N)=O)c2nc3c(nc21)CCCC3 [Compound 262]
20,< 5.30,Cc1ccc(O)c(C)c1-n1c(N)c(S(C)(=O)=O)c2nc(-c3cnccn3)cnc21 [Compound 278]
21,> 8.00,Cc1ccc(O)c(C)c1-n1c(N)c(C(N)=O)c2cc(-c3ccccn3)cnc21 [Compound 295]
22,> 8.00,Cc1ccc(O)c(C)c1-n1c(N)c(C(N)=O)c2cc(N3CCCC3=O)cnc21 [Compound 298]
23,> 8.00,Cc1ccc(O)c(C)c1-n1c(N)c(C(N)=O)c2cc(C3=CCOCC3)cnc21 [Compound 304]
24,> 8.00,Cc1ccc(O)c(C)c1-n1c(N)c(C(N)=O)c2cc(-c3nccs3)cnc21 [Compound 308]
25,> 8.00,Cc1ccc(O)c(C)c1-n1c(N)c(C(N)=O)c2cc(S(=O)(=O)C3CC3)cnc21 [Compound 311]
26,> 8.00,Cc1ccc(O)c(C)c1-n1c(N)c(C(N)=O)c2cc(C#N)cnc21 [Compound 312]
27,> 8.00,Cc1ccc(O)c(Cl)c1-n1c(N)c(C(N)=O)c2cc(Cl)cnc21 [Compound 327]
28,> 8.00,Cc1ccc(O)c(C)c1-n1c(N)c(C(N)=O)c2cccnc21 [Compound 328]
